{"source": "paper PMC6437697", "about": "(Journal of Medicinal Chemistry, 2019)", "assay_in_all_cases": "KINOMEscan", "type_in_all_cases": "binding", "settings_in_all_cases": "read-out: % control activity remaining", "key": {"GAK": {"molecular_target": "T1, GAK (Homo sapiens, UniProt O14976)", "T1 construct": "purchased Eurofins DiscoverX KINOMEscan", "T1 sequence (O14976 1-1311)": "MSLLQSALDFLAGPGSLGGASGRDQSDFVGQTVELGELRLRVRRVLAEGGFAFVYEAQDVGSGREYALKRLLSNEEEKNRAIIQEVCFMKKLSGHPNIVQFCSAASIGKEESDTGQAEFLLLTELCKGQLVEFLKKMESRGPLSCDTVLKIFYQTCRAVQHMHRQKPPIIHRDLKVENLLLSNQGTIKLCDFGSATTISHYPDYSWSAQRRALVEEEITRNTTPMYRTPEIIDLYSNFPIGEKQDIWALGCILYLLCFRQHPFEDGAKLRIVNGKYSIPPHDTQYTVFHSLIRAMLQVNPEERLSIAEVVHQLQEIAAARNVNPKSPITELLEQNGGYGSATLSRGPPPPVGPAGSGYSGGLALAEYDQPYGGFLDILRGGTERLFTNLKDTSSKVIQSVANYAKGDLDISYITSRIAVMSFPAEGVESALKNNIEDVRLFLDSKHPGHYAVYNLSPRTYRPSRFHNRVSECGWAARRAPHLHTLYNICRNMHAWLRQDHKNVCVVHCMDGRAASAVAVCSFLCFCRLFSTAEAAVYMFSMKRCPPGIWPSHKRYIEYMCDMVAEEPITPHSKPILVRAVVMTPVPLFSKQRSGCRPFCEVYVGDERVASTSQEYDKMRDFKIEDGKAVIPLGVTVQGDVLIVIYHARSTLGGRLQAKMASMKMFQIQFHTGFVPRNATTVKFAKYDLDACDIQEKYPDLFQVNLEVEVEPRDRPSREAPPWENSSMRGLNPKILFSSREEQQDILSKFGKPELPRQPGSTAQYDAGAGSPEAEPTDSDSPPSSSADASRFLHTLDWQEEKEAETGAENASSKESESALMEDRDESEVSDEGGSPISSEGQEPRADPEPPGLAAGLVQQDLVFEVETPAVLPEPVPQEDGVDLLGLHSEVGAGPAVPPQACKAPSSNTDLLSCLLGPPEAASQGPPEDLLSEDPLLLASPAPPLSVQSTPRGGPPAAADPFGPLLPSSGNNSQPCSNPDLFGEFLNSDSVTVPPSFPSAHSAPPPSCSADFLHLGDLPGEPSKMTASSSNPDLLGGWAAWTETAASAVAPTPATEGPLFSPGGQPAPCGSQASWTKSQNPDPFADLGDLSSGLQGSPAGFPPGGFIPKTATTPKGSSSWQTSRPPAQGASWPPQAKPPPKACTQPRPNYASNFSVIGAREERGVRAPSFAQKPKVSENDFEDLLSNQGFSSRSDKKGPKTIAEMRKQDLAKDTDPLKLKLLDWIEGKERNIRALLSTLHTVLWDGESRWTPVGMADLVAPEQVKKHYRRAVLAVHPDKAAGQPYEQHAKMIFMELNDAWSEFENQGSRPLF"}, "[1]": {"molecular_target": "T2, RSK1(Kin.Dom.2-C-terminal) (Homo sapiens, UniProt Q15418)", "T2 construct": "RSK1(Kin.Dom.2-C-terminal); purchased Eurofins DiscoverX KINOMEscan", "T2 sequence (Q15418 418-675 limits assumed)": "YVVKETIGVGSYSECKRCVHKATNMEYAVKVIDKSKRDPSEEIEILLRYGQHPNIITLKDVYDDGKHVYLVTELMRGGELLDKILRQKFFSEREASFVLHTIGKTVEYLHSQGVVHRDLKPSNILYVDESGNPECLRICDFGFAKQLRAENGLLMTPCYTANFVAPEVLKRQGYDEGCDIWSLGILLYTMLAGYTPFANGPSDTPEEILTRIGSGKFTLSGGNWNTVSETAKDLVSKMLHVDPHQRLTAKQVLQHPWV"}, "PIP5K2C": {"molecular_target": "T3, PIP5K2C (Homo sapiens, UniProt Q8TBX8)", "T3 construct": "purchased Eurofins DiscoverX KINOMEscan", "T3 sequence (Q8TBX8 1-421)": "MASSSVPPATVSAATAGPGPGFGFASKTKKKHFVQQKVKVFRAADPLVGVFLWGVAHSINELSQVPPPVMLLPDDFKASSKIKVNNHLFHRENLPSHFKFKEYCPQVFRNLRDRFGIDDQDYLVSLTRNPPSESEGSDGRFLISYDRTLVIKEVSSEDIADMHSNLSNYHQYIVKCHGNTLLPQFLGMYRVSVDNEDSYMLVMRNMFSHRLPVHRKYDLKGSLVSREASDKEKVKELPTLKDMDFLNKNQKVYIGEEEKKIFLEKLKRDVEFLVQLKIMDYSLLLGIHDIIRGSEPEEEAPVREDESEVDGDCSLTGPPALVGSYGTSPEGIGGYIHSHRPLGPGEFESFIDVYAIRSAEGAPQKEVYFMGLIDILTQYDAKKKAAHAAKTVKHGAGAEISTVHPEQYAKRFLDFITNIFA"}, "STK39": {"molecular_target": "T4, STK39 (Homo sapiens, UniProt Q9UEW8)", "T4 construct": "purchased Eurofins DiscoverX KINOMEscan"}, "EPHA8": {"molecular_target": "T5, EPHA8 (Homo sapiens, UniProt P29322)", "T5 construct": "purchased Eurofins DiscoverX KINOMEscan", "T5 sequence (P29322 28-1005)": "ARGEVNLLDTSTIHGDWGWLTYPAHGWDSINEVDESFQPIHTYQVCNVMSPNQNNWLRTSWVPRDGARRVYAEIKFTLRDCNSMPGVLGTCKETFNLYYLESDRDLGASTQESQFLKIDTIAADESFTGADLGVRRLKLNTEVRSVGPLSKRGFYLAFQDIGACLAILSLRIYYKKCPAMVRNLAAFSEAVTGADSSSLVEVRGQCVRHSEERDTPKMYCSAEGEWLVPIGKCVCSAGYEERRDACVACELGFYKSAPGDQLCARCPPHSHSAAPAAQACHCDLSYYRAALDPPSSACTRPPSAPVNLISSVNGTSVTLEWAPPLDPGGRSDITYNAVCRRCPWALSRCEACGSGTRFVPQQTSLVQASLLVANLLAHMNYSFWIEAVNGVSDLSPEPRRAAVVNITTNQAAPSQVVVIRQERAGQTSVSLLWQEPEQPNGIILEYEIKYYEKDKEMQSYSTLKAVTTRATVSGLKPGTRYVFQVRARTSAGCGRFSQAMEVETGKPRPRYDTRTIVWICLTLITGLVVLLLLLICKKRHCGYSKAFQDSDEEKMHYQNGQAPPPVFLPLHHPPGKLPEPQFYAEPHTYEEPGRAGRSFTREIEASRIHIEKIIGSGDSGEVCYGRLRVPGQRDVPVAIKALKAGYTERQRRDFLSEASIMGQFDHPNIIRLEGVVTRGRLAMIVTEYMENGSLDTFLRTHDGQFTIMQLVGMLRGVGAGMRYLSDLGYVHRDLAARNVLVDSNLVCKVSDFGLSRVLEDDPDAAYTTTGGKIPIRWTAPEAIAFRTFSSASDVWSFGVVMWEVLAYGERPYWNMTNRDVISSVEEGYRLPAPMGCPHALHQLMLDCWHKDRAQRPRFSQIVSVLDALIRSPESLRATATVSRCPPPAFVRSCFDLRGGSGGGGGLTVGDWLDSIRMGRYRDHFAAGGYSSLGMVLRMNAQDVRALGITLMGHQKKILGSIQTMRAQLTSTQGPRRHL"}}}
{"smiles": "CN1CCC(CNc2cc(Cl)nn3c(-c4cc5nc(Nc6ccccc6)[nH]c5cc4F)cnc23)CC1", "note": "[compound 31, 6-Chloro-3-(6-fluoro-2-(phenylamino)-1H-benzo[d]imidazol-5-yl)-N-((1-methylpiperidin-4-yl)methyl)imidazo[1,2-b]pyridazin-8-amine]", "values": [{"measurement": "remaining binding at 1 µM", "setting": "GAK", "result": 33, "unit": "%"}, {"measurement": "remaining binding at 1 µM", "setting": "[1]", "result": 96, "unit": "%"}, {"measurement": "remaining binding at 1 µM", "setting": "PIP5K2C", "result": 100, "unit": "%"}, {"measurement": "remaining binding at 1 µM", "setting": "STK39", "result": 98, "unit": "%"}, {"measurement": "remaining binding at 1 µM", "setting": "EPHA8", "result": 92, "unit": "%"}]}
{"smiles": "O=C(CN1CCOCC1)N[C@H]1CC[C@H](Nc2cc(Cl)nn3c(-c4ccc5[nH]ncc5c4)cnc23)CC1", "note": "[compound 26]", "values": [{"measurement": "remaining binding at 1 µM", "setting": "GAK", "result": 10, "unit": "%"}, {"measurement": "remaining binding at 1 µM", "setting": "[1]", "result": 59, "unit": "%"}, {"measurement": "remaining binding at 1 µM", "setting": "PIP5K2C", "result": 93, "unit": "%"}, {"measurement": "remaining binding at 1 µM", "setting": "STK39", "result": 89, "unit": "%"}, {"measurement": "remaining binding at 1 µM", "setting": "EPHA8", "result": 90, "unit": "%"}]}
{"smiles": "Clc1cc(NCC2CC2)c2ncc(-c3ccc4[nH]ncc4c3)n2n1", "note": "[compound 2, 6-Chloro-N-(cyclopropylmethyl)-3-(1H-indazol-5-yl)imidazo[1,2-b]pyridazin-8-amine]", "values": [{"measurement": "remaining binding at 1 µM", "setting": "GAK", "result": 8.8, "unit": "%"}, {"measurement": "remaining binding at 1 µM", "setting": "[1]", "result": 83, "unit": "%"}, {"measurement": "remaining binding at 1 µM", "setting": "PIP5K2C", "result": 67, "unit": "%"}, {"measurement": "remaining binding at 1 µM", "setting": "STK39", "result": 88, "unit": "%"}, {"measurement": "remaining binding at 1 µM", "setting": "EPHA8", "result": 90, "unit": "%"}]}
